Test results from PubChem BioAssay (NCI).
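Protocol summary: plate cells (96-well), add compound at 5 concentrations, incubate 48 h, interpolate endpoints linearly. TGI denotes the concentration required for complete inhibition of growth.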

Columns and labels:
Assay in all cases: growth of human tumour cells (NCI), 48 h
SW-620 colon = system: SW-620 colon
CAKI-1 renal = system: CAKI-1 renal
NCI-H460 lung = system: NCI-H460 lung
UO-31 renal = system: UO-31 renal
CCRF-CEM leukemia = system: CCRF-CEM leukemia
DU-145 prostate = system: DU-145 prostate
NCI-H522 lung = system: NCI-H522 lung
M14 melanoma = system: M14 melanoma
SK-MEL-2 melanoma = system: SK-MEL-2 melanoma
MDA-N = system: MDA-N
786-0 renal = system: 786-0 renal
HCC-2998 colon = system: HCC-2998 colon
SR leukemia = system: SR leukemia
SF-295 CNS = system: SF-295 CNS
SK-MEL-5 melanoma = system: SK-MEL-5 melanoma
OVCAR-8 ovarian = system: OVCAR-8 ovarian
SF-539 CNS = system: SF-539 CNS
PC-3 prostate = system: PC-3 prostate
U251 CNS = system: U251 CNS
MALME-3M melanoma = system: MALME-3M melanoma
SK-OV-3 ovarian = system: SK-OV-3 ovarian
MDA-MB-231 breast = system: MDA-MB-231 breast
NCI/ADR-RES ovarian = system: NCI/ADR-RES ovarian
KM12 colon = system: KM12 colon
RXF 393 renal = system: RXF 393 renal
NCI-H23 lung = system: NCI-H23 lung
BT-549 breast = system: BT-549 breast
MOLT-4 leukemia = system: MOLT-4 leukemia
HCT-116 colon = system: HCT-116 colon
OVCAR-4 ovarian = system: OVCAR-4 ovarian
IGROV1 ovarian = system: IGROV1 ovarian
SF-268 CNS = system: SF-268 CNS
COLO 205 colon = system: COLO 205 colon
SK-MEL-28 melanoma = system: SK-MEL-28 melanoma
HOP-92 NSCLC = system: HOP-92 NSCLC
UACC-62 melanoma = system: UACC-62 melanoma
SNB-75 CNS = system: SNB-75 CNS
A549 NSCLC = system: A549 NSCLC
LOX IMVI melanoma = system: LOX IMVI melanoma
RPMI-8226 leukemia = system: RPMI-8226 leukemia
MCF7 breast = system: MCF7 breast
OVCAR-3 ovarian = system: OVCAR-3 ovarian
HT29 colon = system: HT29 colon
SNB-19 CNS = system: SNB-19 CNS
OVCAR-5 ovarian = system: OVCAR-5 ovarian
HS 578T breast = system: HS 578T breast
K-562 leukemia = system: K-562 leukemia
MDA-MB-435 = system: MDA-MB-435
EKVX NSCLC = system: EKVX NSCLC
UACC-257 melanoma = system: UACC-257 melanoma
HCT-15 colon = system: HCT-15 colon
TK-10 renal = system: TK-10 renal
ACHN renal = system: ACHN renal
SN12C renal = system: SN12C renal
NCI-H226 lung = system: NCI-H226 lung
A498 renal = system: A498 renal
HOP-62 NSCLC = system: HOP-62 NSCLC

Measured: TGI

FC(F)(F)c1ccc(C2=N/S(c3ccccc3)=N\C(c3ccc(C(F)(F)F)cc3)=N/S(c3ccccc3)=N\2)cc1 (stereo not given)
> 100 µM: SW-620 colon | CAKI-1 renal | NCI-H460 lung | UO-31 renal | CCRF-CEM leukemia | DU-145 prostate | NCI-H522 lung | M14 melanoma | SK-MEL-2 melanoma | MDA-N | 786-0 renal | HCC-2998 colon | SR leukemia | SF-295 CNS | SK-MEL-5 melanoma | OVCAR-8 ovarian | SF-539 CNS | PC-3 prostate | U251 CNS | MALME-3M melanoma | SK-OV-3 ovarian | MDA-MB-231 breast | NCI/ADR-RES ovarian | KM12 colon | RXF 393 renal | NCI-H23 lung | BT-549 breast | MOLT-4 leukemia | HCT-116 colon | OVCAR-4 ovarian | IGROV1 ovarian | SF-268 CNS | COLO 205 colon | SK-MEL-28 melanoma | HOP-92 NSCLC | UACC-62 melanoma | SNB-75 CNS | A549 NSCLC | LOX IMVI melanoma | RPMI-8226 leukemia | MCF7 breast | OVCAR-3 ovarian | HT29 colon | SNB-19 CNS | OVCAR-5 ovarian | HS 578T breast | K-562 leukemia | MDA-MB-435 | EKVX NSCLC | UACC-257 melanoma | HCT-15 colon | TK-10 renal | ACHN renal | SN12C renal

O=C1C(=C2SC(c3ccccc3)(c3ccccc3)c3ccccc32)C(=O)c2ccccc21
> 100 µM: SW-620 colon | CAKI-1 renal | NCI-H460 lung | UO-31 renal | CCRF-CEM leukemia | DU-145 prostate | NCI-H522 lung | M14 melanoma | MDA-N | 786-0 renal | HCC-2998 colon | SR leukemia | SF-295 CNS | SK-MEL-5 melanoma | OVCAR-8 ovarian | SF-539 CNS | PC-3 prostate | U251 CNS | MALME-3M melanoma | SK-OV-3 ovarian | NCI-H226 lung | MDA-MB-231 breast | NCI/ADR-RES ovarian | KM12 colon | RXF 393 renal | NCI-H23 lung | BT-549 breast | MOLT-4 leukemia | HCT-116 colon | OVCAR-4 ovarian | IGROV1 ovarian | SF-268 CNS | COLO 205 colon | SK-MEL-28 melanoma | HOP-92 NSCLC | UACC-62 melanoma | SNB-75 CNS | A498 renal | A549 NSCLC | LOX IMVI melanoma | RPMI-8226 leukemia | MCF7 breast | OVCAR-3 ovarian | HT29 colon | SNB-19 CNS | OVCAR-5 ovarian | HOP-62 NSCLC | HS 578T breast | K-562 leukemia | MDA-MB-435 | EKVX NSCLC | UACC-257 melanoma | HCT-15 colon | TK-10 renal | ACHN renal | SN12C renal
